Calls of active or inactive are those of the source. The rule behind the calls is not given here.
Columns and labels:
MCF7 [1] = test: Phototoxicity against human MCF7 cells assessed as reduction in cell viability preincubated for 30 mins followed by 1.25 J/cm2 UV light irradiation measured after 48 hrs by MTT assay; type: functional, cell-based; conditions: MCF7, light or radiation study
[2] = Dark toxicity against human MCF7 cells assessed as reduction in cell viability after 72 hrs by MTT assay; type: cell-based
Jurkat [3] = test: Phototoxicity against human Jurkat cells assessed as reduction in cell viability preincubated for 30 mins followed by 1.25 J/cm2 UV light irradiation measured after 48 hrs by MTT assay; type: functional, cell-based; conditions: light or radiation study
[4] = Dark toxicity against human Jurkat cells assessed as reduction in cell viability after 72 hrs by MTT assay; type: cell-based
K562 [5] = test: Phototoxicity against human K562 cells assessed as reduction in cell viability preincubated for 30 mins followed by 1.25 J/cm2 UV light irradiation measured after 48 hrs by MTT assay; type: functional, cell-based; conditions: K562, light or radiation study
[6] = Dark toxicity against human K562 cells assessed as reduction in cell viability after 72 hrs by MTT assay; type: cell-based
MCF7 [7] = test: Induction of ROS generation in human MCF7 cells up to 4 uM measured after 2 hrs under dark condition by H2DCFDA staining based fluorescence assay; type: cell-based; conditions: mcf7, 2 h
MCF7 [8] = test: Induction of apoptosis in human MCF7 cells assessed as live cells at 20 uM upon UV light irradiation measured after 24 hrs by Annexin V-FITC/propidium iodide staining based flow cytometry (reference value: 72%); type: functional
MCF7 [9] = test: Induction of apoptosis in human MCF7 cells assessed as apoptotic cells at 20 uM upon UV light irradiation measured after 24 hrs by Annexin V-FITC/propidium iodide staining based flow cytometry (reference value: 22%); type: functional
MCF7 [10] = test: Induction of mitochondrial dysfunction in human MCF7 cells at 2 uM under dark condition measured after 0.33 to 2 hrs by mitotracker orange CMTM-ROS/LCS1 dye based confocal microscopic method; type: cell-based; conditions: mcf7, 2 µM
MCF7 [11] = test: Induction of mitochondrial dysfunction in human MCF7 cells at 2 uM upon UV light irradiation measured after 0.33 to 2 hrs by mitotracker orange CMTM-ROS/LCS1 dye based confocal microscopic method; type: functional, cell-based
MCF7 [12] = test: Induction of lysosomal activation in human MCF7 cells at 2 uM upon UV light irradiation measured up to 2 hrs by lysotracker green DND26 dye based confocal microscopic method; type: functional, cell-based
MCF7 [13] = test: Induction of lysosomal activation in human MCF7 cells at 2 uM under dark condition measured up to 2 hrs by lysotracker green DND26 dye based confocal microscopic method; type: cell-based; conditions: mcf7, 2 h
MCF7 [14] = test: Phototoxic index, ratio of CC50 for human MCF7 cells under dark condition to EC50 for human MCF7 cells under UV light irradiated condition
Jurkat [15] = test: Phototoxic index, ratio of CC50 for human Jurkat cells under dark condition to EC50 for human Jurkat cells under UV light irradiated condition
K562 [16] = test: Phototoxic index, ratio of CC50 for human K562 cells under dark condition to EC50 for human K562 cells under UV light irradiated condition
Jurkat [17] = test: Phototoxicity against human Jurkat cells assessed as cell viability at 0.075 uM preincubated for 30 mins followed by 2.5 J/cm2 UV light irradiation measured after 72 hrs in presence of vitamin E by MTT assay relative to control; type: functional; conditions: light or radiation study, read-out: Activity
Jurkat [18] = test: Phototoxicity against human Jurkat cells assessed as cell viability at 0.075 uM preincubated for 30 mins followed by 2.5 J/cm2 UV light irradiation measured after 72 hrs in presence of hydroxyl radical scavenger DMTU by MTT assay relative to control; type: functional; conditions: light or radiation study, read-out: Activity
[19] = Singlet oxygen sensitizing activity in aqueous acetonitrile solution irradiated with nanosecond laser flash photolysis assessed as lowest triplet-excited state by measuring short lived transient life time at 10^-4 M at 520 nanometer by spectroscopic method
[20] = Singlet oxygen sensitizing activity in aqueous acetonitrile solution irradiated with nanosecond laser flash photolysis assessed as lowest triplet-excited state by measuring long lived transient life time at 10^-4 M at 440 nanometer by spectroscopic method
[21] = Singlet oxygen sensitizing activity in aqueous acetonitrile solution irradiated with nanosecond laser flash photolysis assessed as lowest triplet-excited state by measuring short lived transient life time at 10^-4 M at 520 nanometer under air equilibrated condition by spectroscopic method
[22] = Singlet oxygen sensitizing activity in aqueous acetonitrile solution irradiated with nanosecond laser flash photolysis assessed as lowest triplet-excited state by measuring short lived transient life time at 10^-4 M at 520 nanometer under oxygen saturated condition by spectroscopic method
[23] = Singlet oxygen sensitizing activity in aqueous acetonitrile solution irradiated with nanosecond laser flash photolysis assessed as lowest triplet-excited state by measuring short lived transient life time at 10^-4 M at 520 nanometer under argon saturated condition by spectroscopic method
[24] = Induction of singlet oxygen photogeneration in aqueous acetonitrile solution of ADPA assessed as photobleaching of anthracene absorption upon 150 Watt mercury light irradiation at 2.3 10^-5M at 400 nanometer measured up to 100 mins
[25] = Drug metabolism in aqueous acetonitrile solution assessed as by-product formation at 2.3 10^-5M upon light irradiation by UV-absorption method; type: physicochemical; conditions: buffer
[26] = Drug metabolism in aqueous acetonitrile solution assessed as by-product formation at 2.3 10^-5M upon light irradiation by HPLC analysis; type: physicochemical; conditions: buffer
[27] = Induction of singlet oxygen photogeneration in aqueous acetonitrile solution of ADPA assessed as photobleaching of anthracene absorption upon 150 Watt mercury light irradiation at 2.3 10^-5M at 400 nanometer measured up to 100 mins by ferrioxalate actinometry
MCF7 [28] = test: Induction of ROS generation in human MCF7 cells at 4 uM preincubated for 30 mins followed by UV light irradiation measured after 2 hrs by H2DCFDA staining based fluorescence assay relative to control; type: functional
MCF7 [29] = test: Induction of ROS generation in human MCF7 cells up to 4 uM preincubated for 30 mins followed by UV light irradiation measured after 2 hrs in presence of 200 to 500 nM antioxidant NAC by H2DCFDA staining based fluorescence assay; type: functional, cell-based
MCF7 [30] = test: Induction of apoptosis in human MCF7 cells assessed as apoptotic cells at 0.7 uM upon UV light irradiation measured after 24 hrs by Annexin V-FITC/propidium iodide staining based flow cytometry (reference value: 22%); type: functional
MCF7 [31] = test: Induction of apoptosis in human MCF7 cells assessed as necrotic cells at 0.7 uM upon UV light irradiation measured after 24 hrs by Annexin V-FITC/propidium iodide staining based flow cytometry relative to control; type: functional
MCF7 [32] = test: Induction of mitochondrial dysfunction in human MCF7 cells assessed as perinuclear clustering at 2 uM upon UV light irradiation measured after 0.33 to 2 hrs by mitotracker orange CMTM-ROS/LCS1 dye based confocal microscopic method; type: functional, cell-based
MCF7 [33] = test: Induction of mitochondrial dysfunction in human MCF7 cells assessed as organelle fusion at 2 uM upon UV light irradiation measured after 0.33 to 2 hrs by mitotracker orange CMTM-ROS/LCS1 dye based confocal microscopic method; type: functional, cell-based
MCF7 [34] = test: Induction of mitochondrial dysfunction in human MCF7 cells assessed as mild swelling at 2 uM upon UV light irradiation measured after 0.33 to 2 hrs by mitotracker orange CMTM-ROS/LCS1 dye based confocal microscopic method; type: functional, cell-based
MCF7 [35] = test: Induction of apoptosis in human MCF7 cells assessed as caspase-3 activation at 0.25 to 0.5 uM upon 2.5 J/cm2 UV light irradiation measured after 24 hrs by Western blot method; type: functional, cell-based
Escherichia coli [36] = test: Induction of Escherichia coli pBR322 DNA single strand break assessed as open circular form DNA bands at 10 to 40 uM upon 7.5 J/cm2 UV-A light irradiation by ethidium bromide staining based UV transillumination assay
MCF7 [37] = test: Induction of lysosomal membrane impairment in human MCF7 cells at 2 uM upon UV light irradiation measured up to 2 hrs by lysotracker green DND26 dye based confocal microscopic method; type: functional, cell-based
MCF7 [38] = test: Induction of apoptosis in human MCF7 cells assessed as tBID activation at 0.25 to 0.5 uM upon 2.5 J/cm2 UV light irradiation measured after 24 hrs by Western blot method; type: functional, cell-based
Escherichia coli [39] = test: Induction of Escherichia coli pBR322 DNA double strand break assessed as linear form DNA bands at 10 to 40 uM upon 7.5 J/cm2 UV-A light irradiation by ethidium bromide staining based UV transillumination assay
Escherichia coli [40] = test: Induction of Escherichia coli pBR322 DNA oxidative damage at 40 uM upon 7.5 J/cm2 UV-A light irradiation in presence of Fpg by ethidium bromide staining based electrophoresis
Escherichia coli [41] = test: Induction of Escherichia coli pBR322 DNA oxidative damage at 40 uM upon 7.5 J/cm2 UV-A light irradiation in presence of endonuclease-3 by ethidium bromide staining based electrophoresis
Jurkat [42] = test: Induction of lipid peroxidation in human Jurkat cells upon 2.5 J/cm2 UV light irradiation measured after 24 hrs by TBARS assay; type: functional, cell-based

`Cn1ccc2c1-c1c(cc(S(=O)(=O)c3ccccc3)c(=O)n1C)CCC2` gave an EC50 (MCF7 [1]) of over 20 µM, a CC50 at 72 h [2] of over 20 µM and an EC50 (Jurkat [3]) of over 20 µM. For the same compound, the CC50 at 72 h [4] was over 20 µM, the EC50 (K562 [5]) was over 20 µM and the CC50 at 72 h [6] was over 20 µM. For the same compound, the Activity (MCF7 [7]) was “Non-Toxic”, the Activity (MCF7 [8]) was 66% and the Activity (MCF7 [9]) was 25%. The Activity (MCF7 [10]) was “Non-Toxic”, the Activity (MCF7 [11]) was “inactive” and the Activity (MCF7 [12]) was “inactive”. The Activity (MCF7 [13]) was “Non-Toxic”.
With `CCOC(=O)c1cc2c(n1Cc1ccc(OC)cc1)-c1[nH]c(=O)c(S(=O)(=O)c3ccccc3)cc1CCC2` the EC50 (MCF7 [1]) was 0.7 µM, the CC50 at 72 h [2] was over 20 µM and the “Ratio CC50/EC50” value (MCF7 [14]) was over 28.53. For the same compound, the EC50 (Jurkat [3]) was 0.21 µM, the CC50 at 72 h [4] was over 20 µM and the “Ratio CC50/EC50” value (Jurkat [15]) was over 95.24. For the same compound, the EC50 (K562 [5]) was 0.28 µM, the CC50 at 72 h [6] was over 20 µM and the “Ratio CC50/EC50” value (K562 [16]) was over 71.43. The viability at 0.075 µM (Jurkat [17]) was 80 to 90%, the viability at 0.075 µM (Jurkat [18]) was 80 to 90% and the Time [19] was under 3.2 microsec. The Time [20] was over 30 microsec, the Time [21] was 1.2 microsec and the Time [22] was 0.7 microsec. The Time [23] was 3.2 microsec, the Activity [24] was “Active” and the Drug metabolism [25] was “Metabolite_Notdetected”. For the same compound, the Drug metabolism [26] was “Metabolite_Notdetected”, the Activity [27] was “Active” and the Activity (MCF7 [28]) was “<=150%”. The Activity (MCF7 [29]) was “inactive”, the Activity (MCF7 [30]) was 36% and the Activity (MCF7 [31]) was 18%. For the same compound, the Activity (MCF7 [10]) was “Non-Toxic”, the Activity (MCF7 [32]) was “Active” and the Activity (MCF7 [33]) was “Active”. The Activity (MCF7 [34]) was “Active”, the Activity (MCF7 [35]) was “Active” and the Activity (Escherichia coli [36]) was “inactive”. The Activity (MCF7 [12]) was “Active”, the Activity (MCF7 [37]) was “Active” and the Activity (MCF7 [38]) was “Active”. The Activity (Escherichia coli [39]) was “inactive”, the Activity (Escherichia coli [40]) was “Active” and the Activity (Escherichia coli [41]) was “Active”. The Activity (Jurkat [42]) was “Dose-dependent effect”.

From ChEMBL document CHEMBL4004854, “Pyrrolo[3',2':6,7]cyclohepta[1,2-b]pyridines with potent photo-antiproliferative activity” (Eur J Med Chem, 2017)
